Source: PubChem BioAssay AID504322 (Emory University Molecular Libraries Screening Center, 2011)
Active and inactive are the calls of the source. How the calls were made is not given here.

System: CHOP reporter cell assay, percent of control
Experiment: CHOP reporter inhibitor potency, dose response, cell-based (AID 504322);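 further: CHO cells carrying a CHOP reporter stimulated with tunicamycin to induce ER stress; potency is for inhibition of the stress-induced reporter signal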

`Cc1ccc(Nc2nc(N)nc(CN3CCN(c4ccccc4)CC3)n2)cc1Cl` was tested, and the IC50 was 8.47 µM.
For `CCOC(=O)c1cnc(-n2nc(C)cc2C)nc1NC1CCCCC1`, the IC50 was > 10 µM (inactive).
With `COc1ccccc1-c1cc(C(F)(F)F)nc(S(=O)(=O)CCCC(=O)Nc2cccnc2Cl)n1` the IC50 was > 10 µM (inactive).
In the case of `FC(F)(F)c1cccc(NC(=S)N2CCN(c3cccc(C(F)(F)F)c3)CC2)c1`, the IC50 is reported as 9.67 µM (inactive).
Work on `Cc1ccccc1Oc1cc(-n2ncc(Cl)c(Cl)c2=O)ncn1` yielded an IC50 of 2.08 µM.
In the case of `Cc1cc(C)c(S(=O)(=O)NCCn2c(C)cc3ccccc32)c(C)c1`, the IC50 is reported as 9.61 µM (inactive).
In the case of `Cc1ccc(-c2nn(CC(=O)NCc3cc(-c4nn(C)c(=O)c5ccccc45)ccc3C)c(=O)c3ccccc23)cc1`, the IC50 is reported as 9.88 µM (inactive).
With `Cn1c(=O)c(C(=O)Nc2ncccc2O)c(O)c2ccccc21` the IC50 was 9.46 µM (inactive).
`CCCCCc1ccc(OCCOCCn2c[n+](C)c3ccccc32)c(CCCCC)c1` showed an IC50 of 3.52 µM.
In the case of `C=C(C)COc1ccc(-c2n[nH]c(C)c2Oc2ccccc2OC)c(O)c1`, the IC50 is reported as 8.82 µM (inactive).
`CCOC(=O)c1[nH]c2ccc(Cl)cc2c1-c1ccccc1` was tested, and the IC50 was 9.7 µM (inactive).
For `CCCOC(=O)c1ccc(Oc2cn[nH]c2-c2ccc(OCC)cc2O)cc1`, the IC50 was 9.56 µM (inactive).
With `C#CC(=O)N(c1ccc(OC)c(OC)c1)C(C(=O)NC1CCCC1)c1cccs1` (configuration not stated) the IC50 was 5.28 µM (inactive).
`O=C(/C=C/c1cccc(C(F)(F)F)c1)Nc1cccc(C(F)(F)F)c1` was tested, and the IC50 was 2.49 µM (inactive).
With `CCOC(=O)CN1C(c2ccc(O)cc2)Nc2ccc(Br)cc2C1c1ccccc1` (configuration not stated) the IC50 was 9.53 µM (inactive).
`CCCNC(=O)c1nnsc1S(=O)c1ccc(Cl)cc1` (configuration not stated) was tested, and the IC50 was 5.55 µM (inactive).
In the case of `Cc1cc(/C=N/n2cnnc2)c(C)n1-c1ccc(OCc2ccc(Cl)cc2Cl)cc1`, the IC50 is reported as < 0.16 µM (inactive).
`O=C(OCn1ncc(Cl)c(Cl)c1=O)c1cccc(C(F)(F)F)c1` showed an IC50 of 4.44 µM.
`C/C(=N\OCc1cccc(C(=O)O)c1)c1ccc(Cl)cc1` was tested, and the IC50 was 6 µM (inactive).
In the case of `Cc1ccc(-c2nc3cc(NS(=O)(=O)c4ccc(C)cc4)ccc3o2)cc1`, the IC50 is reported as 5.63 µM (inactive).
`O=C(NCc1nc(-c2ccc(C(F)(F)F)cc2)no1)Nc1ccc(OC(F)(F)F)cc1` was tested, and the IC50 was 2.03 µM.
In the case of `C/C=C/Cn1c(SCCCc2ccccc2)nc2c1c(=O)[nH]c(=O)n2C`, the IC50 is reported as > 10 µM (inactive).
For `CC1(c2ccc(OC(F)F)cc2)NC(=O)N(/N=C/c2c(O)ccc3ccccc23)C1=O` (configuration not stated), the IC50 was 8.25 µM (inactive).
With `CC[C@@H](C)[C@H](NC(=O)OC(C)(C)C)c1nnc(S(=O)(=O)Cc2cc(C)ccc2C)o1` the IC50 was > 10 µM (inactive).
For `COC(=O)/C(=C(/F)Sc1cc(C)c(O)c(C)c1)C(F)(F)F`, the IC50 was 9.36 µM (inactive).
In the case of `O=C1c2ccccc2C(=O)c2c1oc(C(F)(F)F)c2C(=O)c1ccccc1`, the IC50 is reported as 9.61 µM (inactive).
`Fc1c(F)c(C(F)(F)F)c(F)c(F)c1N/N=C\c1cccs1` gave an IC50 of 4.78 µM.
`O=C(Cn1c(C(F)(F)F)nc2ccccc21)N=Nc1c(O)[nH]c2ccc(Br)cc12` was tested, and the IC50 was > 10 µM (inactive).
In the case of `OCCCNc1cc(-c2ccnc(Nc3cccc(Cl)c3)n2)ccn1`, the IC50 is reported as < 0.16 µM.
In the case of `CC(C)(C)C(=O)NC(NC(=S)Nc1sc2c(c1C#N)CCCC2)C(Cl)(Cl)Cl` (configuration not stated), the IC50 is reported as > 10 µM (inactive).
With `S=C(Nc1ccccc1)Nc1ccc(OCc2ccc(Cl)cc2Cl)cc1` the IC50 was 0.33 µM.
With `Cc1cccc(N=Nc2c(N)n[nH]c2-c2ccc(Cl)cc2)c1` the IC50 was 9.41 µM (inactive).
`O=C(COCC(=O)Nc1cccc(C(F)(F)F)c1)Nc1cccc(C(F)(F)F)c1` was tested, and the IC50 was 5.44 µM (inactive).
In the case of `CC(C)c1ccc(-c2cc(C(=O)N3N=C(C(F)F)CC3(O)C(F)F)c3ccccc3n2)cc1` (configuration not stated), the IC50 is reported as 8.38 µM (inactive).
Compound `C=CS(=O)(=O)c1ccc(Oc2ccc(S(=O)(=O)C=C)cc2)cc1` has an IC50 of 1.7 µM.
In the case of `NC(=O)CC(NC(=O)Cc1cccc2ccccc12)c1ccc(NCCOc2ccccc2)c([N+](=O)[O-])c1` (configuration not stated), the IC50 is reported as 8.33 µM (inactive).
For `COC(=O)[C@@H]1[C@@H](C(=O)OC)C2(c3ccccc3-c3ccccc32)N(c2ccc(Cl)cc2)N1C#N`, the IC50 was 4.53 µM.
With `CCN(CC)CCOC(=O)c1ccc(N/C=C(/C#N)c2nc(-c3cccc(OC)c3)cs2)cc1` the IC50 was 9.3 µM (inactive).
In the case of `COc1ccc(-c2nc(-c3ccc(NC(=O)c4ccc(Br)o4)cc3)no2)cc1OC`, the IC50 is reported as > 10 µM (inactive).
In the case of `O=C(CCl)Nc1ccc(Sc2ccc(NC(=O)CCl)cc2)cc1`, the IC50 is reported as 4.97 µM.
`COc1cccc(N2CCN(c3ncnc4c3[nH]c3ccccc34)CC2C)c1` (configuration not stated) was tested, and the IC50 was 4.13 µM.
For `O=C(Nc1ccccc1)C1=C(c2ccccc2)S(=O)(=O)CCS1(=O)=O`, the IC50 was 9.67 µM (inactive).
